Results as given in US20080161306A1, “Pyrrole Derivatives as Dna Gyrase and Topoisomerase Inhibitors” (priority 2005, published 2008).
Values after ≈ are worked out from the molar mass of the structure shown. Where two headings read alike, the source gives them in different places.

Experiments:
Format in all cases: cell-based
[1] = test system: Streptococcus pneumoniae; assay: Bacterial susceptibility testing in liquid media (MIC), Streptococcus pneumoniae; conditions: lowest concentration reducing growth by 80% or more, 37 degrees C., 24 hrs; for MIC: Streptococcus pneumoniae
Experimental: (§1) Compounds were tested for antimicrobial activity by susceptibility testing in liquid media. Compounds were dissolved in dimethylsulfoxide and tested in 10 doubling dilutions in the susceptibility assays. The organisms used in the assay were grown overnight on suitable agar media and then suspended in a liquid medium appropriate for the growth of the organism. The suspension was a 0.5 McFarland and a further 1 in 10 dilution was made into the same liquid medium to prepare the final organism suspension in 100 μL. Plates were incubated under appropriate conditions at 37 degrees C. for 24 hrs prior to reading. The Minimum Inhibitory Concentration was determined as the lowest drug concentration able to reduce growth by 80% or more.

[2] = test system: HIN446; assay: Bacterial susceptibility testing in liquid media (MIC), HIN446; conditions: strain HIN446; lowest concentration reducing growth by 80% or more; 37 degrees C., 24 hrs
Experimental: as §1

[3] = test system: SAU516; assay: Bacterial susceptibility testing in liquid media (MIC), SAU516; conditions: strain SAU516; lowest concentration reducing growth by 80% or more; 37 degrees C., 24 hrs
Experimental: as §1

[4] = strain SPN548, read-out: MIC SPN548

SMILES	MIC [1, 4] [mg/L]	MIC [2] [mg/L]	MIC [3] [mg/L]	MIC ([1]; read-out: MIC against Streptococcus pneumoniae) [mg/L]	MIC SPN548 ([1]; strain SPN548) [mg/L]	MIC HIN446 [2] [mg/L]	MIC SAU516 [3] [mg/L]
Cc1[nH]c(C(=O)N[C@H]2CC[C@H](c3cccc(C(=O)O)c3)CC2)c(Cl)c1Cl [Example 5, trans-3-(4-{[(3,4-Dichloro-5-methyl-1H-pyrrol-2-yl)carbonyl]amino}cyclohexyl)benzoic acid]	4 (≈ 10.1 µM)	16 (≈ 40.5 µM)	4 (≈ 10.1 µM)	–	–	–	–
Cc1[nH]c(C(=O)NC2CC=C(c3cccc(C(=O)O)c3)CC2)c(Cl)c1Cl (stereo not shown) [Example 16, 5-(4-{[(3,4-Dichloro-5-methyl-1H-pyrrol-2-yl)carbonyl]amino}cyclohex-1-en-1-yl)benzoic acid]	1 (≈ 2.54 µM)	4 (≈ 10.2 µM)	2 (≈ 5.09 µM)	1 (≈ 2.54 µM)	–	–	–
CO[C@@H]1C=C(c2cccc(C(=O)O)c2)CC[C@@H]1NC(=O)c1[nH]c(C)c(Cl)c1Cl (relative stereo) [Example 11, 3-((3,4-Cis)-4-{[(3,4-Dichloro-5-methyl-1H-pyrrol-2-yl)carbonyl]amino}-3-methoxycyclohex-1-en-1-yl)benzoic acid]	–	–	–	–	0.13 (≈ 0.307 µM)	2 (≈ 4.72 µM)	0.5 (≈ 1.18 µM)
